Test results published in ChEMBL document CHEMBL2424579, “Quinazolin-4-one derivatives as selective histone deacetylase-6 inhibitors for the treatment of Alzheimer's disease” (J Med Chem, 2013).
Activity calls are given as the source filed them. The calls are words filed in the database; no cut-off is given here.

Legend:
[1] = target: Protein deacetylase HDAC6 (Homo sapiens) (UniProt Q9UBN7); assay: Inhibition of human recombinant HDAC6 expressed in baculovirus/sf9 cells using RHKKAc as substrate at 1 uM
[2] = target: Histone deacetylase 11 (Homo sapiens) (UniProt Q96DB2); assay: Inhibition of human recombinant HDAC11 expressed in baculovirus/sf9 cells using RHKKAc as substrate at 1 uM
Histone deacetylase 2 [3] = target: T1, Histone deacetylase 2 (Homo sapiens, UniProt Q92769); assay: Inhibition of human recombinant HDAC2 expressed in baculovirus/sf9 cells using RHKKAc as substrate at 1 uM
Histone deacetylase 1 [4] = target: T2, Histone deacetylase 1 (Homo sapiens, UniProt Q13547); assay: Inhibition of human recombinant HDAC1 expressed in baculovirus/sf9 cells using RHKKAc as substrate at 1 uM
[5] = target: Polyamine deacetylase HDAC10 (Homo sapiens) (UniProt Q969S8); assay: Inhibition of human recombinant HDAC10 expressed in baculovirus/sf9 cells using RHKKAc as substrate at 1 uM
[6] = target: Histone deacetylase 8 (Homo sapiens) (UniProt Q9BY41); assay: Inhibition of human recombinant HDAC8 expressed in baculovirus/sf9 cells using RHKAcKAc as substrate at 1 uM
SH-SY5Y [7] = assay: Induction of neurite outgrowth in human SH-SY5Y cells after 5 days; type: functional, cell-based; settings: 120 h
SH-SY5Y [8] = assay: Induction of neurite outgrowth in human SH-SY5Y cells at 10 uM after 5 days; type: functional, cell-based
[9] = Cytotoxicity against human SH-SY5Y cells at 25 uM; type: cell-based
Cytochrome P450 2C19 = Cytochrome P450 2C19 (Homo sapiens, UniProt P33261); assay: Inhibition of CYP2C19 (unknown origin) using 3-cyano-7-ethoxycoumarin as substrate; type: ADME
Cytochrome P450 1A2 = Cytochrome P450 1A2 (Homo sapiens, UniProt P05177); assay: Inhibition of CYP1A2 (unknown origin) using 3-cyano-7-ethoxycoumarin as substrate; type: ADME
Histone deacetylase 2 [10] = target: T1, Histone deacetylase 2; assay: Inhibition of human recombinant HDAC2 expressed in baculovirus/sf9 cells using RHKKAc as substrate
PC-12 [11] = assay: Induction of neurite outgrowth in rat PC12 cells after 5 days; type: functional, cell-based; settings: PC-12, 120 h
Cytochrome P450 2D6 = Cytochrome P450 2D6 (Homo sapiens, UniProt P10635); assay: Inhibition of CYP2D6 (unknown origin) using 3-cyano-7-ethoxycoumarin as substrate; type: ADME
SH-SY5Y [12] = assay: Increase of synaptic activity in human SH-SY5Y cells after 5 days by fluorescence assay; type: functional, cell-based; settings: 120 h
Histone deacetylase 1 [13] = target: T2, Histone deacetylase 1; assay: Inhibition of human recombinant HDAC1 expressed in baculovirus/sf9 cells using RHKKAc as substrate
Histone deacetylase 8 = target: T3, Histone deacetylase 8 (Homo sapiens, UniProt Q9BY41); assay: Inhibition of human recombinant HDAC8 expressed in baculovirus/sf9 cells using RHKAcKAc as substrate
T3 sequence (Q9BY41 whole entry): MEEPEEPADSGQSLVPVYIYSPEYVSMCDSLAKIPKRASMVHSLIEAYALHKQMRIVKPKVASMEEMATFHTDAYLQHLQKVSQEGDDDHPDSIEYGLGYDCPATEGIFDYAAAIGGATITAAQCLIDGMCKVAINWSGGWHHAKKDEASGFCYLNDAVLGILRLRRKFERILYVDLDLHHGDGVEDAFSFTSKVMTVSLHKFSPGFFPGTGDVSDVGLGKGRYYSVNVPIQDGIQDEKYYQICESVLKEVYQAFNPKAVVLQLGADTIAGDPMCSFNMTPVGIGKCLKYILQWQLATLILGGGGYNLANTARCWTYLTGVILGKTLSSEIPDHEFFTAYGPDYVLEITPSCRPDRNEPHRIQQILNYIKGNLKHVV

[14] = target: Poly [ADP-ribose] polymerase 1 (Homo sapiens) (UniProt P09874); assay: Inhibition of PARP1 (unknown origin) up to 25 uM
Cytochrome P450 3A4 = Cytochrome P450 3A4 (Homo sapiens, UniProt P08684); assay: Inhibition of CYP3A4 (unknown origin) using Vivid BOMR as substrate; type: ADME
PC-12 [15] = assay: Induction iof GAP-43 protein expression in rat PC12 cells after 48 hrs by Western blotting analysis; type: functional, cell-based
Mus musculus [16] = assay: Antialzheimer activity in wild type learning-impaired Balb/c mouse model with hippocampal lesions assessed as increase in acetylated alpha-tubulin level in hippocampus region at 10 mg/kg, ip administered for 30 days by rotarod test
PC-12 [17] = assay: Inhibition of HDAC6 in rat PC12 cells assessed as acetylation of histone H3 at 10 uM after 48 hrs by Western blotting analysis; type: cell-based
Mus musculus [18] = assay: Antialzheimer activity in wild type learning-impaired Balb/c mouse model with hippocampal lesions at 10 mg/kg, ip administered for 30 days by rotarod test relative to vehicle-treated control; settings: Hippocampus, TDE = time-dependent effect
Histone deacetylase 11 = target: T4, Histone deacetylase 11 (Homo sapiens, UniProt Q96DB2); assay: Inhibition of human recombinant HDAC11 expressed in baculovirus/sf9 cells using RHKKAc as substrate
T4 sequence (Q96DB2 whole entry): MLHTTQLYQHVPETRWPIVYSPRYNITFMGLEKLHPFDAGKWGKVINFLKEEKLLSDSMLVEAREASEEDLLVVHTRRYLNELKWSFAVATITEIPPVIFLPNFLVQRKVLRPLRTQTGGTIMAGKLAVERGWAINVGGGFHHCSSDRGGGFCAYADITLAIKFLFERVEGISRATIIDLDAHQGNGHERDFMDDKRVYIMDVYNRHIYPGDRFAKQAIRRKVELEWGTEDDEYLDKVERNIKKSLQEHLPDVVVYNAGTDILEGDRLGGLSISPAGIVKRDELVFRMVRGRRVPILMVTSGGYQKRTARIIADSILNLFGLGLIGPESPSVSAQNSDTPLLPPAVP

PC-12 [19] = assay: Increase of synaptic activity in rat PC12 cells after 5 days by fluorescence assay; type: functional, cell-based; settings: PC-12, 120 h
PC-12 [20] = assay: Induction iof GAP-43 protein expression in rat PC12 cells at 0.1 uM after 48 hrs by Western blotting analysis; type: functional, cell-based
Vero = assay: Cytotoxicity against african green monkey Vero cells at 25 uM; type: cell-based; settings: chlorocebus sabaeus
Cytochrome P450 2C9 = Cytochrome P450 2C9 (Homo sapiens, UniProt P11712); assay: Inhibition of CYP2C9 (unknown origin) using Vivid OOMR as substrate; type: ADME
PC-12 [21] = assay: Induction of neurite outgrowth in rat PC12 cells at 10 uM after 5 days; type: functional, cell-based
PC-12 [22] = assay: Inhibition of HDAC6 in rat PC12 cells assessed as induction of alpha-tubulin acetylation at 10 uM after 48 hrs by Western blotting analysis; type: cell-based
[23] = target: Amyloid-beta precursor protein (Homo sapiens, UniProt P05067); assay: Inhibition of amyloid beta aggregation (unknown origin) after 4 hrs by thioflavin S assay in absence of Zn2+
[24] = target: T5, Protein deacetylase HDAC6 (Homo sapiens, UniProt Q9UBN7); assay: Inhibition of human recombinant HDAC6 expressed in baculovirus/sf9 cells using RHKKAc as substrate
T5 sequence (Q9UBN7 whole entry): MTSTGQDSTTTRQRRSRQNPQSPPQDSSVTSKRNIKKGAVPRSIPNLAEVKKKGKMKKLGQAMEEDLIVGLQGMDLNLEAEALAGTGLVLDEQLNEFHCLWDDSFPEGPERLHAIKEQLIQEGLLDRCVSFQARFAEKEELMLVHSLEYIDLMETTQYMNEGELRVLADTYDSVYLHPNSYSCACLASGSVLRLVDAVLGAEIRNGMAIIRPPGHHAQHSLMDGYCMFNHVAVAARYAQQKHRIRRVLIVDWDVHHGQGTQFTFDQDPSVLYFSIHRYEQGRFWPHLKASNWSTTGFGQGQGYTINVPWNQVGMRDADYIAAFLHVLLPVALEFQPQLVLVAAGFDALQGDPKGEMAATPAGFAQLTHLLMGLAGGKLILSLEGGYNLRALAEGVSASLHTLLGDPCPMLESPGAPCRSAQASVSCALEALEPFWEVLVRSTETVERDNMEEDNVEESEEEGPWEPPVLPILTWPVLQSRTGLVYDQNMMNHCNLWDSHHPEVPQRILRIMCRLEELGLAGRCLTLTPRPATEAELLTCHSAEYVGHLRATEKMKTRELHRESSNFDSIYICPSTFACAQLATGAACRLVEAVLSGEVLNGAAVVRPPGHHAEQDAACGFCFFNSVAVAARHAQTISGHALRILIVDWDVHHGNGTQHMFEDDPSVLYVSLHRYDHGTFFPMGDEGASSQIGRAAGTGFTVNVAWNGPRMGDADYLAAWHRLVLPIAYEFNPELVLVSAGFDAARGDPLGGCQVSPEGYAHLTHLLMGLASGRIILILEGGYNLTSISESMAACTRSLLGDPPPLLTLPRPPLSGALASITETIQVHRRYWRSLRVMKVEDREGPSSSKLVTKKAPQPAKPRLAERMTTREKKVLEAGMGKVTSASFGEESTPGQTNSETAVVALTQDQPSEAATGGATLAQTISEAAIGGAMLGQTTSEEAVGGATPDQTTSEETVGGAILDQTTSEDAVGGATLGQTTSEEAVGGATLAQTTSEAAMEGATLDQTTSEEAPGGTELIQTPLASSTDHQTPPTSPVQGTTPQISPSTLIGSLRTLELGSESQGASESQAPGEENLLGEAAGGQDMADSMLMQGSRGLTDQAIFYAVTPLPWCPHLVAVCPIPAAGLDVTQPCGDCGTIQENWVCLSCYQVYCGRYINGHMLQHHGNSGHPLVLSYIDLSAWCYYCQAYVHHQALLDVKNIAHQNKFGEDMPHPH

PC-12 [25] = assay: Cytotoxicity against rat PC12 cells at 25 uM; type: cell-based; settings: pc-12, 25 µM
PC-12 [26] = assay: Inhibition of HDAC6 in rat PC12 cells assessed as induction of alpha-tubulin acetylation after 48 hrs by Western blotting analysis; type: cell-based

T1 sequence (Q92769 whole entry): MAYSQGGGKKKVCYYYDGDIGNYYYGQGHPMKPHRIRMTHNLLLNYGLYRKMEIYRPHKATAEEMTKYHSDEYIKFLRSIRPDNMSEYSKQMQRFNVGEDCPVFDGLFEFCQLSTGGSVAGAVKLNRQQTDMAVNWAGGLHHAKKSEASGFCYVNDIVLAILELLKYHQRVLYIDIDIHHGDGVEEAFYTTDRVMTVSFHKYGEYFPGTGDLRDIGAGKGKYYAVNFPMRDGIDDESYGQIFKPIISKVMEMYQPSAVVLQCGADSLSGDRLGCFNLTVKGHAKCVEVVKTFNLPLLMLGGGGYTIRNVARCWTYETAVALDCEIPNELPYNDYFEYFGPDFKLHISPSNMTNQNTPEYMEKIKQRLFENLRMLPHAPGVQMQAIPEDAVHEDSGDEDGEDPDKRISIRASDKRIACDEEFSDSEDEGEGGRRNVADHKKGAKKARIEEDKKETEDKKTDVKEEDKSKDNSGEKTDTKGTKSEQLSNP
Cytochrome P450 1A2, sequence (P05177 whole entry): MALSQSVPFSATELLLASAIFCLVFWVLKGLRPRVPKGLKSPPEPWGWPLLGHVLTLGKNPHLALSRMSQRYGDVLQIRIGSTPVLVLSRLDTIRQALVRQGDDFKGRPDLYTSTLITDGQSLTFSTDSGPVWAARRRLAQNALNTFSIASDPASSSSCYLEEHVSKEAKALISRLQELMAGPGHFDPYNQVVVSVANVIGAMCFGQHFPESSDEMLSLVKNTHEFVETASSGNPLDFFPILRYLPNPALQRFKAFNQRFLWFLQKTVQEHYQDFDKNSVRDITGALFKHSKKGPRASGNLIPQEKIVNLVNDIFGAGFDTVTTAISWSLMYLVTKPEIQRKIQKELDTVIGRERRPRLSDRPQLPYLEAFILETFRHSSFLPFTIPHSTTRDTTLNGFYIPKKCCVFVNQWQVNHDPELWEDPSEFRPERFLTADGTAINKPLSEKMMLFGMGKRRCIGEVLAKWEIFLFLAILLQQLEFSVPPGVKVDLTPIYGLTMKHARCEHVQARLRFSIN
Cytochrome P450 2C9, sequence (P11712 whole entry): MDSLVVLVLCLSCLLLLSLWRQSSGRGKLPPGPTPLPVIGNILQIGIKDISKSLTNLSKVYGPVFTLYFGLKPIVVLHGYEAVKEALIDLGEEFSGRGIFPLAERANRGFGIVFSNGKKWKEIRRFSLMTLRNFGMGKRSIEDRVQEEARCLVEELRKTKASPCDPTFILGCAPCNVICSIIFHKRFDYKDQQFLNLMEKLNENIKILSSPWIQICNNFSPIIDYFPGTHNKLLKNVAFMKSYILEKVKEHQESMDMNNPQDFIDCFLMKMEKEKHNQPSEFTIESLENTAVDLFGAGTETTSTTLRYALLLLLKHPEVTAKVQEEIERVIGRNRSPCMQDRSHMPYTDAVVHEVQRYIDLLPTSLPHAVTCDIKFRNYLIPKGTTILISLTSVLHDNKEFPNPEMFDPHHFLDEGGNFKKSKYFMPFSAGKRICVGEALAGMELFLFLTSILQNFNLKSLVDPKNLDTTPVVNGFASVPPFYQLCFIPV
Cytochrome P450 2D6, sequence (P10635 whole entry): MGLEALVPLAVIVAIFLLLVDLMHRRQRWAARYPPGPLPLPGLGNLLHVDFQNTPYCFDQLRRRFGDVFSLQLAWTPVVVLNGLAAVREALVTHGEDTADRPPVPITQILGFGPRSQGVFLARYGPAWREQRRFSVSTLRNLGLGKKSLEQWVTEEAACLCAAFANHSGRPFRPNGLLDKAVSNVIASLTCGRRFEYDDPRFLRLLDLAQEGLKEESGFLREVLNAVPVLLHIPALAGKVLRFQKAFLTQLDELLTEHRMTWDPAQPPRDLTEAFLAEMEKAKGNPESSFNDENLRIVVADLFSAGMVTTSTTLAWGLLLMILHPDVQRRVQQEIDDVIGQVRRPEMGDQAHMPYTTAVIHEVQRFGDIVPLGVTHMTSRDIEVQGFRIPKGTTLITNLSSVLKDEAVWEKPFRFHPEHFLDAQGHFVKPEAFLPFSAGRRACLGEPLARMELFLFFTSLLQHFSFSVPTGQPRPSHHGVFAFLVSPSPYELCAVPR
Cytochrome P450 2C19, sequence (P33261 whole entry): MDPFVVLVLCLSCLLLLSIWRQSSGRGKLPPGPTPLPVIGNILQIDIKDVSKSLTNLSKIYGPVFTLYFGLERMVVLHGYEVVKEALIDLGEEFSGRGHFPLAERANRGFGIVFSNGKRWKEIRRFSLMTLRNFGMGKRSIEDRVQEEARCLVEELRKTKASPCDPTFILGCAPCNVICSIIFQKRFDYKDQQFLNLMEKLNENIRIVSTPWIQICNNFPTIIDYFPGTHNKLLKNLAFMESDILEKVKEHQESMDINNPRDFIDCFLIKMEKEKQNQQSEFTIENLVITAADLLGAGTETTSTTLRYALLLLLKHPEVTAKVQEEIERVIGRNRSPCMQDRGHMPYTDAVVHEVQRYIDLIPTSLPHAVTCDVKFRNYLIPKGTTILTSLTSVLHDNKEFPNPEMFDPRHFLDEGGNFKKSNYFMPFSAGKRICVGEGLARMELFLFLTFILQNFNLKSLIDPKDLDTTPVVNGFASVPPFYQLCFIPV
T2 sequence (Q13547 whole entry): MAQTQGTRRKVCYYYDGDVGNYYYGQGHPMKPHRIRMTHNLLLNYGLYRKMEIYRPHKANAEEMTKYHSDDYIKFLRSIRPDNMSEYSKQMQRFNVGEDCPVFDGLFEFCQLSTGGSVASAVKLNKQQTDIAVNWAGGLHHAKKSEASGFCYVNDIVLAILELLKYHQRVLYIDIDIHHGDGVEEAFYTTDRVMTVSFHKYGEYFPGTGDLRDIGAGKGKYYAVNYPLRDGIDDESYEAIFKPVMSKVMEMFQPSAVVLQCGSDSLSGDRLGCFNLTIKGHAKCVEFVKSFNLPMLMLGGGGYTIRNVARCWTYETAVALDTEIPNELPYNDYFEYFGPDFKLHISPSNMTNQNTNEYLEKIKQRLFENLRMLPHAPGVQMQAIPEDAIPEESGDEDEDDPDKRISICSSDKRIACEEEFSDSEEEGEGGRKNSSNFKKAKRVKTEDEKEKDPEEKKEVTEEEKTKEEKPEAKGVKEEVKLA
Poly [ADP-ribose] polymerase 1 (Homo sapiens), sequence (P09874 whole entry): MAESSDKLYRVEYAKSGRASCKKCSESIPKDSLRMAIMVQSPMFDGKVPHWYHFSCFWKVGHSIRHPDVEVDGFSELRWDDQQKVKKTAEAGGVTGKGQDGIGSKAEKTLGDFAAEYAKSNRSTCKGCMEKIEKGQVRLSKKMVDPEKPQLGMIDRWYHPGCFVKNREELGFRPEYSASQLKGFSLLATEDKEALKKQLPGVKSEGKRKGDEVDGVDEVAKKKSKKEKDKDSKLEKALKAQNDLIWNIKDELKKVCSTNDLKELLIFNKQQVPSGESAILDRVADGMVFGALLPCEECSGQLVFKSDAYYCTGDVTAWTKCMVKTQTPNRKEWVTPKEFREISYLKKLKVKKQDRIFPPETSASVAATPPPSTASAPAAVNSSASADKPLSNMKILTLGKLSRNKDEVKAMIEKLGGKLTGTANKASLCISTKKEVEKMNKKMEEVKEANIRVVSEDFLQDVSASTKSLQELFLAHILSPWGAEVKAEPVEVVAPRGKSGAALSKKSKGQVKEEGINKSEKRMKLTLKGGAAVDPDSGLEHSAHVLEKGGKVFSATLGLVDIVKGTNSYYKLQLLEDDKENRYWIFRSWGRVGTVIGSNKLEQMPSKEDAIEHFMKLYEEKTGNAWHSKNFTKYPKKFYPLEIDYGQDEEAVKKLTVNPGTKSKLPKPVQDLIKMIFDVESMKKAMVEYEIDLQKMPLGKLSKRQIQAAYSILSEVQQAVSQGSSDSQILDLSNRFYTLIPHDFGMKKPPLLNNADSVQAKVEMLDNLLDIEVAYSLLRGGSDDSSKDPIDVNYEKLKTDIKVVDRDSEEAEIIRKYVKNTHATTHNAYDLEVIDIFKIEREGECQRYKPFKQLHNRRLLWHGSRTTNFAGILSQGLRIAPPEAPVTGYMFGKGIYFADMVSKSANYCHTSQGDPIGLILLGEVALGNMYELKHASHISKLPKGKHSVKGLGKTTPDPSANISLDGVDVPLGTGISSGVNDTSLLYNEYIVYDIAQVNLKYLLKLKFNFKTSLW
Cytochrome P450 3A4, sequence (P08684 whole entry): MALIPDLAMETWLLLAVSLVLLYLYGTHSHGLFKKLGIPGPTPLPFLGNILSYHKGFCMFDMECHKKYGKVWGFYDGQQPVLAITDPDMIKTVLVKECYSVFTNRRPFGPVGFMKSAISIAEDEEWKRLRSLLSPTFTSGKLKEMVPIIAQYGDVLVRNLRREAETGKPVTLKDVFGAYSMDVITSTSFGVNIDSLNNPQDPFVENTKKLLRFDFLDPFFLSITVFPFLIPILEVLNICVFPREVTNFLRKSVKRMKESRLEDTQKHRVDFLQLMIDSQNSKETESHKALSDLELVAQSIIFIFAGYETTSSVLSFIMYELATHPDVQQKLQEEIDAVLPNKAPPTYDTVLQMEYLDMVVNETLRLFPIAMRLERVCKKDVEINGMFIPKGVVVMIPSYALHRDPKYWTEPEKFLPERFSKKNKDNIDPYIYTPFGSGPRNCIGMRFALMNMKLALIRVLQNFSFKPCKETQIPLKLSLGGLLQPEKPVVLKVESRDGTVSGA

Compound	EC50 (SH-SY5Y [7]) [µM]	Activity (SH-SY5Y [8])	Activity [9]	IC50 (Cytochrome P450 2C19) [µM]	IC50 (Cytochrome P450 1A2) [µM]	IC50 (Histone deacetylase 2 [10]) [µM]	EC50 (PC-12 [11]) [µM]	IC50 (Cytochrome P450 2D6) [µM]	EC50 (SH-SY5Y [12]) [µM]	IC50 (Histone deacetylase 8) [µM]	inhibition [14]	IC50 (Cytochrome P450 3A4) [µM]	Activity (PC-12 [15])	IC50 (Histone deacetylase 11) [µM]	EC50 (PC-12 [19]) [µM]	Activity (Vero)	IC50 (Cytochrome P450 2C9) [µM]	Activity (PC-12 [21])	IC50 [24] [µM]	Activity (PC-12 [25])	also measured
CCc1nc2c(-c3ccc(C(=O)NO)cc3)cccc2c(=O)n1CCc1ccccc1																					inhibition [1]: 50%; inhibition [2]: inactive; inhibition (Histone deacetylase 2 [3]): inactive; inhibition (Histone deacetylase 1 [4]): inactive; inhibition [5]: inactive; inhibition [6]: 50%
Cc1nc2cc(/C=C/C(=O)NO)ccc2c(=O)n1CCc1ccccc1	9.2	Active	Non-toxic	> 10	> 10	6.45	7.3	> 10	6.8	1.75	inactive	6.5	Dose-dependent effect	4.08	6.5	Non-toxic	9.1	Active	0.029	Non-toxic	IC50 (Histone deacetylase 1 [13]): 1.88 µM; Activity (Mus musculus [16]): Active; inhibition (PC-12 [17]): Active; Activity (Mus musculus [18]): tde; Activity (PC-12 [20]): Active; inhibition (PC-12 [22]): Active; IC50 [23]: > 50 µM
CCc1nc2c(Cc3ccc(C(=O)NO)cc3)cccc2c(=O)n1CCc1ccccc1	8.1	Active	Non-toxic	3.3	> 10	> 10	6.2	> 10	8.3	0.282	inactive	0.1	Dose-dependent effect	37.1	6.7	Non-toxic	2.1	Active	0.079	Non-toxic	inhibition (PC-12 [26]): Dose-dependent effect
